Test results: patent US8106225B2, “Methods of preparing substituted tetracyclines with transition metal-based chemistries” (Trustees of Tufts College, priority 1999, dated 2012)

Assays:
Test in all cases: Antibacterial activity in vitro, MIC by broth dilution
Assay type in all cases: cell-based
[1] = tested on: E. coli D 31m4 pHCM1 Tc^r; conditions: E. coli D 31m4 pHCM1, tetracycline resistant, 18 hrs
Procedure: (§1) Various compounds made in accordance with the invention were evaluated for anti-bacterial activity in vitro as follows. The minimum inhibitory concentration, the lowest concentration of drug that inhibits bacterial growth at 18 hrs at their appropriate temperature, is determined by the broth dilution method using L-broth or Mueller-Hinton broth. The Mueller-Hinton broth was cation-adjusted accordingly and all bacteriological methods were performed as was described by Waitz, J. A., National Commission for Clinical Laboratory Standards Document M7-A2, vol. 10, no. 8, pp. 13-20, 2nd edition, Villanova, Pa. (1990). The organisms tested represent gram-positive and gram-negative bacterial species that are susceptible to tetracyclines or are resistant to tetracyclines due to the ability to efflux tetracyclines or which confer resistance by ribosomal protection mechanisms. The clinical strains used are either susceptible to tetracyclines or are resistant to them by either drug efflux or ribosomal protection.

E. coli D31m4 Tc^s = conditions: E. coli D31m4, tetracycline susceptible, 18 hrs
Procedure: as §1

[2] = tested on: E. hirae 9790 with pAM211 Tc^r; conditions: E. hirae 9790 with pAM211, tetracycline resistant, 18 hrs
Procedure: as §1

[3] = tested on: E. hirae 9790 with pMV158 Tc^r; conditions: E. hirae 9790 with pMV158, tetracycline resistant, 18 hrs
Procedure: as §1

S. aureus RN4250 Tc^r = conditions: S. aureus RN4250, tetracycline resistant, 18 hrs
Procedure: as §1

S. aureus RN450 Tc^s = conditions: S. aureus RN450, tetracycline susceptible, 18 hrs
Procedure: as §1

E. coli D1-209 Tc^r = tested on: E. coli D1-209 Tc^r; set-up: unit not given here; conditions: E. coli D1-209, tetracycline resistant, 18 hrs
Procedure: as §1

E. coli D1-299 Tc^r = tested on: E. coli D1-299 Tc^r; set-up: unit not given here; conditions: E. coli D1-299, tetracycline resistant, 18 hrs
Procedure: as §1

E. coli ML308-225 Tc^s = tested on: E. coli ML308-225 Tc^s; set-up: unit not given here; conditions: E. coli ML308-225, tetracycline susceptible, 18 hrs
Procedure: as §1

E. hirae ATCC9790 Tc^s = tested on: E. hirae ATCC9790 Tc^s; set-up: unit not given here; conditions: E. hirae ATCC9790, tetracycline susceptible, 18 hrs
Procedure: as §1

S. aureus MRSA5 Tc^r = tested on: S. aureus MRSA5 Tc^r; set-up: unit not given here; conditions: S. aureus MRSA5, tetracycline resistant, 18 hrs
Procedure: as §1

[4] = tested on: S. warnerii Tc^r ATCC12715; set-up: unit not given here; conditions: S. warnerii ATCC12715, tetracycline resistant, 18 hrs
Procedure: as §1

SMILES | Antibacterial Activity (minimum inhibitory concentration) [1] | Antibacterial Activity (minimum inhibitory concentration) (E. coli D31m4 Tc^s) | Antibacterial Activity (minimum inhibitory concentration) [2] | Antibacterial Activity (minimum inhibitory concentration) [3] | Antibacterial Activity (minimum inhibitory concentration) (S. aureus RN4250 Tc^r) | Antibacterial Activity (minimum inhibitory concentration) (S. aureus RN450 Tc^s) | Antibacterial Activity (minimum inhibitory concentration) (E. coli D1-209 Tc^r) | Antibacterial Activity (minimum inhibitory concentration) (E. coli D1-299 Tc^r) | Antibacterial Activity (minimum inhibitory concentration) (E. coli ML308-225 Tc^s) | Antibacterial Activity (minimum inhibitory concentration) (E. hirae ATCC9790 Tc^s) | Antibacterial Activity (minimum inhibitory concentration) (S. aureus MRSA5 Tc^r) | Antibacterial Activity (minimum inhibitory concentration) [4]
CC1c2ccc(/C=C/C(=O)O)c(O)c2C(=O)C2=C(O)C3(O)C(=O)C(C(N)=O)=C(O)[C@@H](N(C)C)C3C(O)C21 (stereo partly drawn) [D, [4S-(4a,12aα)]-9-[3′-(E)-propenoic acid]-4-(dimethylamino)-1,4,4a,5,5a,6,11,12a-octahydro-3,5,10,12,12a-pentahydroxy-6-methyl-1,11-dioxo-2-naphthacenecarboxamide] | >50 | >50 | >50 | 12.5 | >50 | 3.12 | >50 | >50 | 25 | 3.12 | >50 | >50
C[C@H]1c2cccc(O)c2C(=O)C2=C(O)[C@]3(O)C(=O)C(C(N)=O)=C(O)[C@@H](N(C)C)[C@@H]3[C@@H](O)[C@@H]21 [Doxy, [4S-(4a,12aα)]-4-(dimethylamino)-1,4,4a,5,5a,6,11,12a-octahydro-3,5,10,12,12a-pentahydroxy-6-methyl-1,11-dioxo-2-naphthacenecarboxamide, reference compound] | 25 | 1.56 | – | – | 25 | <0.098 | 50 | 25 | 0.78 | 0.195 | 6.25 | 50
CCCCOC(=O)/C=C/c1ccc2c(c1O)C(=O)C1=C(O)C3(O)C(=O)C(C(N)=O)=C(O)[C@@H](N(C)C)C3C(O)C1C2C (stereo partly drawn) [E, [4S-(4a,12aα)]-9-[3′-(E)-butylpropenoate]-4-(dimethylamino)-1,4,4a,5,5a,6,11,12a-octahydro-3,5,10,12,12a-pentahydroxy-6-methyl-1,11-dioxo-2-naphthacenecarboxamide] | – | – | – | – | – | 0.78 | >50 | >50 | 6.25 | 3.12 | 0.39 | 6.25
CCCCOC(=O)/C=C/c1cc(N(C)C)c2c(c1O)C(=O)C1=C(O)C3(O)C(=O)C(C(N)=O)=C(O)C(N(C)C)C3CC1C2 (stereo not drawn) [F, [4S-(4a,12aα)]-9-[3′-(E)-butylpropenoate]-4,7-Bis(dimethylamino)-1,4,4a,5,5a,6,11,12a-octahydro-3,10,12,12a-tetrahydroxy-1,11-dioxo-2-naphthacenecarboxamide] | 6.25 | 3.12 | – | – | – | 1.56 | >50 | >50 | >50 | 3.12 | 3.12 | 3.12
CN(C)C1C(O)=C(C(N)=O)C(=O)C2(O)C(O)=C3C(=O)c4c(O)ccc(-c5ccc(Cl)cc5)c4CC3CC12 (centres unmarked) [G] | 0.78 | 0.78 | ≦0.098 | ≦0.098 | ≦0.098 | ≦0.098 | >50 | >50 | >50 | ≦0.098 | 0.195 | ≦0.098
CN(C)C1C(O)=C(C(N)=O)C(=O)C2(O)C(O)=C3C(=O)c4c(O)c(-c5ccccc5)cc(-c5ccccc5)c4CC3CC12 (stereo not drawn) [H, [4S-(4a,12aα)]-7-phenyl-9-phenyl-4-(dimethylamino)-1,4,4a,5,5a,6,11,12a-octahydro-3,10,12,12a-tetrahydroxy-1,11-dioxo-2-naphthacenecarboxamide] | – | 1.56 | – | 0.39 | 0.78 | 1.56 | >50 | >50 | >50 | 0.78 | 0.78 | 0.78
Cc1ccc(C=C2c3cccc(O)c3C(=O)C3=C(O)C4(O)C(=O)C(C(N)=O)=C(O)C(N(C)C)C4C(O)C23)cc1 (stereo not drawn) [I, [4S-(4a,12aα)]-13-(4′-methylphenyl)-4-(dimethylamino)-1,4,4a,5,5a,6,11,12a-octahydro-3,5,10,12,12a-pentahydroxy-6-methylene-1,11-dioxo-2-naphthacenecarboxamide] | 25 | – | – | 3.12 | – | ≦0.098 | >50 | >50 | >50 | 0.39 | 6.25 | 12.5
CN(C)[C@@H]1C(O)=C(C(N)=O)C(=O)C2(O)C(O)=C3C(=O)c4c(O)cccc4C(=Cc4cccc(C(=O)O)c4)C3C(O)C12 (stereo partly drawn) [J, [4S-(4a,12aα)]-13-(3′-carboxyphenyl)-4-(dimethylamino)-1,4,4a,5,5a,6,11,12a-octahydro-3,5,10,12,12a-pentahydroxy-6-methylene-1,11-dioxo-2-naphthacenecarboxamide] | >50 | >50 | >50 | >50 | >50 | 0.39 | >50 | >50 | >50 | 3.12 | >50 | >50
CCOc1ccc(C=C2c3cccc(O)c3C(=O)C3=C(O)C4(O)C(=O)C(C(N)=O)=C(O)C(N(C)C)C4C(O)C23)cc1 (stereo not drawn) [K, [4S-(4a,12aα)]-13-(4′-ethoxyphenyl)-4-(dimethylamino)-1,4,4a,5,5a,6,11,12a-octahydro-3,5,10,12,12a-pentahydroxy-6-methylene-1,11-dioxo-2-naphthacenecarboxamide] | >50 | – | 3.12 | – | – | 0.195 | >50 | >50 | – | 0.39 | 6.25 | 12.5
